Data on 15 molecules can be found in US20030050307A1, “Novel indole derivatives” (H. Lundbeck A/S, priority 1999, published 2003).

Assay [1] concerns the target T1, human cloned dopamine D4.2-receptors (Homo sapiens, UniProt P21917, DEL265-296).
T1 construct: expressed in transfected cells; host or cells: CHO cells
T1 sequence (P21917 with tags, fused parts or gaps DEL265-296): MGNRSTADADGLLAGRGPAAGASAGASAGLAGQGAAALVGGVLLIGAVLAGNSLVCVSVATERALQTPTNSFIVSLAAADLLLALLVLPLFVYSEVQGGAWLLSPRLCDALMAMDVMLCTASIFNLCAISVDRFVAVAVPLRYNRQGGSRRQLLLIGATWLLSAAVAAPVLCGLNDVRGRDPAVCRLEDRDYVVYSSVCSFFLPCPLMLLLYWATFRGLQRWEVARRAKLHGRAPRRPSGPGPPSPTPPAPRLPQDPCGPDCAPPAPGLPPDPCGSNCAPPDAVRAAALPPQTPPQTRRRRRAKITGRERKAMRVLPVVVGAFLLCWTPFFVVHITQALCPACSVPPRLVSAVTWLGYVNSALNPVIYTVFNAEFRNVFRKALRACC
Nature of the assay: Inhibition of the binding of 3H-YM-09151-2 to human dopamine D4 receptors. The following applies: [3H]YM-09151-2 0.06 nM; for IC50: membranes of CHO-cells expressing human D4.2. On the procedure:
Inhibition of the Binding of ^3H-YM-09151-2 to Human Dopamine D4 Receptors
By this method, the inhibition by drugs of the binding of [^3H]YM-09151-2 (0.06 nM) to membranes of human cloned dopamine D4.2-receptors expressed in CHO-cells is determined in vitro. Method modified from NEN Life Science Products, Inc., technical data certificate PC2533-10/96.

For assay [2], the target named is T2, cloned human 5-HT1A-receptors (Homo sapiens, UniProt P08908).
T2 construct: expressed in transfected cells; host or cells: HeLa cells (HA7)
T2 sequence (P08908 1-422): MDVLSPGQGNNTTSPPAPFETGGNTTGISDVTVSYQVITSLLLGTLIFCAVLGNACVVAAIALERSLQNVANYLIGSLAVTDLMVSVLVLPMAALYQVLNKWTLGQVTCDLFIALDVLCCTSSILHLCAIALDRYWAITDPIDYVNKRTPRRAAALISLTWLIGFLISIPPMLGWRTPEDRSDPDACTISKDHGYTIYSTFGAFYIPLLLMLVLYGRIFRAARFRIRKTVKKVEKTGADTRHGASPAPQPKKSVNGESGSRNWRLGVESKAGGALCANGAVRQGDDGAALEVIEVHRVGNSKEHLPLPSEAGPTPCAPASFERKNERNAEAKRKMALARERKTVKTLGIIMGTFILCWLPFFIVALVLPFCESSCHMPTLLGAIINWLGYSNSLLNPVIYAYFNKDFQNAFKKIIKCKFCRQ
The assay is described as follows: Inhibition of 3H-5-CT binding to human 5-HT1A receptors. The following applies: transfected HeLa cells (HA7), 15 minutes at 37° C., pH 7.7. Here is the method:
The affinity of the compounds of the invention to 5-HT1A receptors was determined by measuring the inhibition of binding of a radioactive ligand at 5-HT1A-receptors as described in the following test:
Inhibition of ^3H-5-CT Binding to Human 5-HT1A Receptors.
By this method, the inhibition by drugs of the binding of the 5-HT1A-agonist ^3H-5-carboxamido tryptamine (^3H-5-CT) to cloned human 5-HT1A-receptors stably expressed in transfected HeLa cells (HA7) (Fargin, A. et al. J. Biol. Chem. 1989, 264, 14848) is determined in vitro. The assay was performed as a modification of the method described by Harrington, M. A. et al. J. Pharmacol. Exp. Ther. 1994, 268, 1098. Human 5-HT1A-receptors (40 μg of cell homogenate) were incubated for 15 minutes at 37° C. in 50 mM Tris buffer at pH 7.7 in the presence of ^3H-5-CT. Non-specific binding was determined by including 10 μM of metergoline. The reaction was terminated by rapid filtration through Unifilter GF/B filters on a Tomtec Cell Harvester. Filters were counted in a Packard Top Counter.

[3] abbreviates: at 100 nM, CHO-cell membranes, human D4.2.

As a reminder, the IC50 is the concentration that gives 50% inhibition. Read a high IC50 as weaker potency in that assay. As to `Fc1ccc(OCCCN2CCN(c3cccc4[nH]ccc34)CC2)c(F)c1` [Compound 4c], the values for the half-inhibitory concentration (IC50) in assay [1] and in assay [2] were 1.6 nM and 5.4 nM, respectively.

As to `Clc1ccccc1SCCCN1CCN(c2cccc3[nH]ccc23)CC1` [Compound 2a, 4-{4-[3-(2-Chloro-phenylsulfanyl)-propyl]-piperazin-1-yl}-1H-indole], the figures for the IC50 in assay [1] and in assay [2] were 1.1 nM and 2.4 nM, respectively.

By inhibition is commonly meant the drop in the measured response relative to a control, in per cent. With `Brc1cccc(SCCCN2CCN(c3cccc4[nH]ccc34)CC2)c1` [Compound 5ay, 4-{4-[3-(3-Bromo-phenylsulfanyl)-propyl]-piperazin-1-yl}-1H-indole], the inhibition at 0.1 µM in assay [1] (setting [3]) came out at 105%. For the same molecule, the inhibition at 0.05 µM in assay [2] (at 50 nM) is 96%.

With `FC(F)(F)c1ccc(SCCCN2CCN(c3cccc4[nH]ccc34)CC2)cc1` [Compound 5aw, 4-{4-[3-(4-Trifluoromethyl-phenylsulfanyl)-propyl]-piperazin-1-yl}-1H-indole], in assay [1] (setting [3]), the inhibition at 0.1 µM is 99%. For the same molecule, the inhibition at 0.05 µM in assay [2] (at 50 nM) came to 98%.

With `CC(C)c1ccccc1SCCCN1CCN(c2cccc3[nH]ccc23)CC1` [Compound 5az, 4-{4-[3-(2-Isopropyl-phenylsulfanyl)-propyl]-piperazin-1-yl}-1H-indole], the inhibition at 0.1 µM in assay [1] (setting [3]) was determined as 94%. Besides, the inhibition at 0.05 µM in assay [2] (at 50 nM) is 98%.

Take `Clc1cccc(Cl)c1SCCCCN1CCN(c2cccc3[nH]ccc23)CC1` [Compound 4d, 4-{4-[4-(2,6-Dichloro-phenylsulfanyl)-butyl]-piperazin-1-yl}-1H-indole]: the IC50 in assay [1] worked out at 1.8 nM; in assay [2], 7.1 nM.

As to `CC(C)c1ccccc1SCCCCN1CCN(c2cccc3[nH]ccc23)CC1` [Compound 5bb, 4-{4-[4-(2-Isopropyl-phenylsulfanyl)-butyl]-piperazin-1-yl}-1H-indole], the inhibition at 0.1 µM in assay [1] (setting [3]) stood at 94%. Further, the inhibition at 0.05 µM in assay [2] (at 50 nM) turned out to be 94%.

Turning to `Fc1ccc(OCCCCN2CCN(c3cccc4[nH]ccc34)CC2)c(Br)c1` [Compound 2d, 4-{4-[4-(2-Bromo-4-fluoro-phenoxy)-butyl]-piperazin-1-yl}-1H-indole], the IC50 in assay [1] amounted to 1.6 nM; in assay [2] it was 6.4 nM.

Turning to `Clc1cccc(SCCN2CCN(c3cccc4[nH]ccc34)CC2)c1Cl` [Compound 5ad, 4-{4-[2-(2,3-Dichloro-phenylsulfanyl)-ethyl]-piperazin-1-yl}-1H-indole], the IC50 in assay [1] turned out to be 4.1 nM. Moreover, the inhibition at 0.05 µM in assay [2] (at 50 nM) was found to be 76%.

As for `Fc1cc(Cl)c(OCCCCN2CCN(c3cccc4[nH]ccc34)CC2)c(Cl)c1` [Compound 4g, 4-{4-[4-(2,6-Dichloro-4-fluoro-phenoxy)-butyl]-piperazin-1-yl}-1H-indole], the IC50 in assay [1] came out at 4.9 nM; in assay [2], 2.4 nM.

As for `Cc1cccc(Cl)c1SCCCCN1CCN(c2cccc3[nH]ccc23)CC1` [Compound 4f], the figures for the IC50 in assay [1] and in assay [2] were 3 nM and 5.8 nM, respectively.

Consider `Cc1ccc(SCCCN2CCN(c3cccc4[nH]ccc34)CC2)cc1C` [Compound 5as, 4-{4-[3-(3,4-Dimethyl-phenylsulfanyl)-propyl]-piperazin-1-yl}-1H-indole], for which the inhibition at 0.1 µM in assay [1] (setting [3]) turned out to be 99%. Moreover, the inhibition at 0.05 µM in assay [2] (at 50 nM) worked out at 103%.

On to `N#Cc1cccc(OCCCCN2CCN(c3cccc4[nH]ccc34)CC2)c1` [Compound 5at, 3-{4-[4-(1H-Indol-4-yl)-piperazin-1-yl]-butoxy}-benzonitrile], for which the inhibition at 0.1 µM in assay [1] (setting [3]) came to 95%. The inhibition at 0.05 µM in assay [2] (at 50 nM) stood at 92%.

Turning to `N#Cc1ccc(OCCCCN2CCN(c3cccc4[nH]ccc34)CC2)c(Cl)c1` [Compound 5ap], the “Inhibition of 3H-YM-09151 binding % inhibition at 100 nM” value in assay [1] (setting [3]) came out at 106%. The “Inhibition of 3H-5-CT Binding % inhibition at 50 nM” value in assay [2] (at 50 nM) came out at 100%.

On to `Clc1ccc(SCCCN2CCN(c3cccc4[nH]ccc34)CC2)cc1Cl` [Compound 5ag, 4-{4-[3-(3,4-Dichloro-phenylsulfanyl)-propyl]-piperazin-1-yl}-1H-indole], for which the inhibition at 0.1 µM in assay [1] (setting [3]) came to 95%. Besides, the inhibition at 0.05 µM in assay [2] (at 50 nM) was 93%.
